Measured values reported in patent US8513462B2, “Pesticides and uses thereof” (Dow AgroSciences LLC, priority 2007, dated 2013).

Tests used:
[1] = system: green peach aphid (Myzus persicae); assay: Insecticidal test for green peach aphid in foliar spray assay; format: in vivo; details: 72 h, foliar spray on cabbage, Corrected % Control (Abbott) after three days, read-out: Rating against green peach aphid on cabbage (foliar spray)
Protocol: Squash seedlings with fully expanded cotyledon leaves were trimmed to one cotyledon per plant and infested with cotton aphid (wingless adults and nymphs) 1 day prior to chemical application. Each plant was examined before chemical application to ensure uniform infestation (ca. 30-70 aphids per plant). Compounds (2 mg) were dissolved in 2 ml of acetone:methanol (1:1) solvent, forming stock solutions of 1000 ppm. The stock solutions were diluted 5× with 0.025% Tween 20 in H2O to obtain a solution at 200 ppm. A hand-held Devilbiss aspirator type sprayer was used to apply the spray solutions until runoff to both sides of the squash cotyledon leaves. Four plants (4 replications) were used for each compound. Reference plants (solvent check) were sprayed with the diluent only. Treated plants were held in a holding room for 3 days at approximately 23° C. and 40% RH before the number of live aphids on each plant was recorded. Insecticidal activity was measured by Corrected % Control using Abbott's correction formula and presented in Table 1-Activity: Corrected % Control=100*(X−Y)/X • where X=No. of live aphids on solvent check plants • Y=No. of live aphids on treated plants Results are shown in Table 7. Insecticidal Test for Green Peach Aphid (Myzus persicae) in Foliar Spray Assay Cabbage seedlings grown in 3-inch pots, with 2-3 small (3-5 cm) true leaves, were used as test substrate. The seedlings were infested with 20-50 green peach aphids (wingless adult and nymph) 1-2 days prior to chemical application. Four seedlings were used for each treatment. Compounds (2 mg) were dissolved in 2 ml of acetone:methanol (1:1) solvent, forming stock solutions of 1000 ppm. The stock solutions were diluted 5× with 0.025% Tween 20 in H2O to obtain a solution at 200 ppm. A hand-held Devilbiss aspirator sprayer was used for spraying a solution to both sides of cabbage leaves until runoff. Reference plants (solvent check) were sprayed with the diluent only. Treated plants were held in a holding room for three days at approximately 23° C. and 40% RH prior to grading. Evaluation was conducted by counting the number of live aphids per plant under a microscope. Insecticidal activity was measured by using Abbott's correction formula: Corrected % Control=100*(X−Y)/X • where X=No. of live aphids on solvent check plants • Y=No. of live aphids on treated plants

Row | Compound | melting point | pest or weed control at 200 ppm [1]
1 | CC(c1ccc(C(F)(F)F)nc1)S(C)(=O)=Nc1nc(C2CC2)cs1 (stereo not shown) [Compound 32] | 102 to 106 °C | < 80%
2 | CC(c1ccc(C(F)(F)F)nc1)S(C)(=O)=Nc1nc(-c2cccnc2)cs1 (stereo not shown) [Compound 33] | 178 to 182 °C | 80 to 100%
3 | CC(c1ccc(C(F)(F)F)nc1)S(C)(=O)=Nc1nc(-c2ccccn2)cs1 (stereo not shown) [Compound 35] | 134 to 141 °C | 80 to 100%
4 | CC(c1ccc(C(F)(F)F)nc1)S(C)(=O)=Nc1nc(-c2ccc(Br)s2)cs1 (stereo not shown) [Compound 37] | 160 to 165 °C | 80 to 100%
5 | CC(c1ccc(C(F)(F)F)nc1)S(C)(=O)=Nc1nc(-c2ccsc2)cs1 (stereo not shown) [Compound 38] | 168 to 173 °C | 80 to 100%
6 | CC(c1ccc(C(F)(F)F)nc1)S(C)(=O)=Nc1nc(-c2nccs2)cs1 (stereo not shown) [Compound 39] | 163 to 167 °C | 80 to 100%
7 | CC(c1ccc(C(F)(F)F)nc1)S(C)(=O)=Nc1nc(-c2ccc(Cl)s2)cs1 (stereo not shown) [Compound 41] | 124 to 128 °C | 80 to 100%
8 | CC(c1ccc(C(F)(F)F)nc1)S(C)(=O)=Nc1nc(-c2ccc(C#N)cc2)cs1 (stereo not shown) [Compound 43] | 78 to 80 °C | 80 to 100%
9 | COc1cccc(-c2csc(N=S(C)(=O)C(C)c3ccc(C(F)(F)F)nc3)n2)c1 (stereo not shown) [Compound 44] | 107 to 110 °C | 80 to 100%
10 | CC(c1ccc(C(F)(F)F)nc1)S(C)(=O)=Nc1nc(-c2ccc(C(F)(F)F)cc2)cs1 (stereo not shown) [Compound 45] | 124 to 127 °C | 80 to 100%
11 | CCOc1ccc(-c2csc(N=S(C)(=O)C(C)c3ccc(C(F)(F)F)nc3)n2)cc1 (stereo not shown) [Compound 46] | 105 to 110 °C | 80 to 100%
12 | COc1ccc(-c2csc(N=S(C)(=O)C(C)c3ccc(C(F)(F)F)nc3)n2)cc1OC (stereo not shown) [Compound 48] | 153 to 160 °C | 80 to 100%
13 | COc1ccccc1-c1csc(N=S(C)(=O)C(C)c2ccc(C(F)(F)F)nc2)n1 (stereo not shown) [Compound 51] | 72 to 77 °C | 80 to 100%
14 | CC(c1ccc(C(F)(F)F)nc1)S(C)(=O)=Nc1nc(-c2ccc(OC(F)(F)F)cc2)cs1 (stereo not shown) [Compound 52] | 90 to 95 °C | 80 to 100%
15 | COc1ccc(-c2csc(N=S(C)(=O)Cc3ccc(C(F)(F)F)nc3)n2)cc1 (stereo not shown) [Compound 54] | 158 to 161 °C | < 80%
16 | CS(=O)(Cc1ccc(C(F)(F)F)nc1)=Nc1nc(C(F)(F)F)cs1 (stereo not shown) [Compound 55] | 126 to 128 °C | 80 to 100%
17 | CCc1csc(N=S(C)(=O)Cc2ccc(C(F)(F)F)nc2)n1 (stereo not shown) [Compound 56] | 114 to 116 °C | 80 to 100%
18 | CS(=O)(Cc1ccc(Cl)nc1)=Nc1nc(C(F)(F)F)cs1 (stereo not shown) [Compound 58] | 122 to 125 °C | 80 to 100%
19 | CCc1csc(N=S(C)(=O)Cc2ccc(Cl)nc2)n1 (stereo not shown) [Compound 59] | 114 to 116 °C | 80 to 100%
20 | CC(c1ccc(C(F)(F)F)nc1)S(C)(=O)=Nc1nc(-c2ccc(Br)cc2)co1 (stereo not shown) [Compound 75] | 134 to 137 °C | < 80%
21 | CC(C)(C)c1csc(N=S2(=O)CCCC2c2ccc(Cl)nc2)n1 (stereo not shown) [Compound 76] | 77 to 81 °C | 80 to 100%
22 | CCc1csc(N=S2(=O)CCCC2c2ccc(Cl)nc2)n1 (stereo not shown) [Compound 77] | 67 to 71 °C | 80 to 100%
23 | COc1ccc(-c2csc(N=S3(=O)CCCC3c3ccc(Cl)nc3)n2)cc1 (stereo not shown) [Compound 78] | 88 to 94 °C | < 80%
